According to PMC12402003 (Frontiers in Nutrition, 2025):

Columns and labels:
Caco-2 cell monolayers = assay: Bidirectional transport across Caco-2 cell monolayer; format: in vitro ADME, human; details: for efflux rate (BL to AP side) / absorption rate (AP to BL side): 50 μM; for efflux rate (BL to AP side): up to 150 min; for absorption rate (AP to BL side): within 150 min; for ER (efflux rate) / Papp (AP → BL) / Papp (BL → AP): 50 μmol/L, no inhibitor; for transport mechanism into the small intestine: inferred from ER < 1 and inhibitor study
Experimental: The cells were seeded at a density of approximately 10^5 cells/cm^2 on TranswellTM filter (Corning Inc., Lowell, MA) and cultured for 21 d before use. Cell monolayer integrity was controlled by the measurement of trans-epithelial electrical resistance (TEER) with an EVOM epithelial voltammeter equipped with an electrode (World Precision Instruments, Sarasota, FL, United States). […] (a) R(%)=CBL×VBL/CAP×VAP×100 In this, R represents the absorption rate (as a percentage); CBL is the anthocyanin concentration of the BL side (in μM); VBL is the volume of anthocyanins from the BL (in L); CAP is the initial anthocyanin concentration of the AP side (in μM), and VAP is the volume of anthocyanins in the AP chamber (in L). The absorption rate of anthocyanins from BL to AP is calculated using the following Equation b: (b) R(%)=CAP×VAP/CBL×VBL×100 In this, R represents the absorption rate (as a percentage); CAP is the anthocyanin concentration from the AP side (in μM); VAP is the volume of anthocyanins in the AP chamber (in mL); CBL is the initial concentration from the BL side (in μM) and VBL is the volume of anthocyanins in the BL chamber (in L).

Caco-2 cells = assay: MTT cell viability assay in Caco-2 cells; format: cell-based, human; details: 24 h; for cell viability: 100 μM, compared to control (0 μM); for change in cell vitality: concentrations below 50 μM
Experimental: (§1) Cell culture: […] Subsequently, the supernatant was removed and 200 μL of MTT solution (0.1 mg/mL) was added to each well to incubate for an additional 4 h (200 μL for Caco-2 cells, 100 μL for HepG2 cells, both at a concentration of 0.1 mg/mL). Finally, formazan crystals were completely dissolved in DMSO in a shaker for 10 min and the absorbance was measured at a wavelength of 490 nm using a microplate absorbance reader (FLUOstar Omera, BMG Labtech, Germany). Cell viability was determined using the following equation: Cell viability (%) = (OD sample/OD control) × 100, where OD is the optical density. The absorbance values for drug fractions […], catechin, and […]-catechin) were compared to those of untreated culture (control). Each treatment was set up in triplicate.

Srebp-1c = assay: Western blot of Srebp-1c protein in Caco-2/HepG2 co-culture; format: cell-based, human; details: OA-induced co-culture, 50 μM, 24 h; compared vs. OA
Experimental: (§2) Cells from the co-culture model were lysed and supernatants were collected. The protein concentrations were determined using the BCA Protein Quantitation Kit. Then electrophoresis of samples was conducted using a SDS-PAGE kit (Beyotime Biotechnology) following the manufacturer’s instructions and transferred to poly-vinylidene difluoride (PVDF) membrane. Next, membranes were incubated in 5% nonfat milk to block non-specific antibody binding for 30 min at room temperature and followed by incubating with primary antibodies and secondary antibodies. Chemiluminescence based-images of the blots were acquired using ImageQuant LAS 500 system (GE, United States). Protein bands were quantified using ImageJ (version 1.53a) software. The changes in expression levels of these proteins detected finally are used to evaluate the sample’s effect on lipid metabolism.

HepG2 cells [1] = assay: TG and TC content in OA-induced high-fat HepG2 cells; format: cell-based, human; details: OA-induced high-fat HepG2 cells, 50 μM, 24 h
Experimental: For high fat HepG2 model: […] Afterwards, cells were harvested and lysed. […] For TG and TC assay: […] The medium was removed and the cells were washed twice with PBS. The levels of triglycerides (TG) and total cholesterol (TC) in the cells were determined according to the instructions of test kits.

Plin1 = assay: Western blot of Plin1 protein in Caco-2/HepG2 co-culture; format: cell-based, human; details: OA-induced co-culture, 50 μM, 24 h; compared vs. OA
Experimental: as §2

HepG2 cells [2] = assay: MTT cell viability assay in HepG2 cells; format: cell-based, human; details: 24 h; for effect on cell viability: 50 μM; for cytotoxicity: 100 μM
Experimental: as §1

Fasn = assay: Western blot of Fasn protein in Caco-2/HepG2 co-culture; format: cell-based, human; details: OA-induced co-culture, 50 μM, 24 h; compared vs. OA
Experimental: as §2

SMILES | efflux rate (BL to AP side) (Caco-2 cell monolayers) [%] | absorption rate (AP to BL side) (Caco-2 cell monolayers) [%] | ER (efflux rate) (Caco-2 cell monolayers; 30 min) | Papp (AP → BL) (Caco-2 cell monolayers; 30 min) | Papp (BL → AP) (Caco-2 cell monolayers; 30 min) | ER (efflux rate) (Caco-2 cell monolayers; 60 min) | Papp (AP → BL) (Caco-2 cell monolayers; 60 min) | Papp (BL → AP) (Caco-2 cell monolayers; 60 min) | ER (efflux rate) (Caco-2 cell monolayers; 90 min) | Papp (BL → AP) (Caco-2 cell monolayers; 90 min) | ER (efflux rate) (Caco-2 cell monolayers; 120 min) | Papp (AP → BL) (Caco-2 cell monolayers; 120 min) | Papp (BL → AP) (Caco-2 cell monolayers; 120 min) | ER (efflux rate) (Caco-2 cell monolayers; 150 min) | Papp (AP → BL) (Caco-2 cell monolayers; 150 min) | Papp (BL → AP) (Caco-2 cell monolayers; 150 min) | transport mechanism into the small intestine (Caco-2 cell monolayers) | cell viability (Caco-2 cells) [%] | change in cell vitality (Caco-2 cells) | Plin1 protein expression level (densitometry) (Plin1) | also measured
OC[C@H]1O[C@@H](Oc2cc3c(O)cc(O)cc3[o+]c2-c2ccc(O)c(O)c2)[C@H](O)[C@@H](O)[C@@H]1O [C3G, Cyanidin-3-O-glucoside] | 15.41 | 22.47 | 0.49 | 3.9 ± 1.32^Aa* ×10^−5 cm /s | 1.8 ± 0.14^Ba ×10^−5 cm /s | 0.56 | 1.8 ± 0.07^Cb* ×10^−5 cm /s | 1.0 ± 0.17^Bb ×10^−5 cm /s | 0.53 | 0.6 ± 0.04^Cc ×10^−5 cm /s | 0.57 | 0.9 ± 0.03^Cb* ×10^−5 cm /s | 0.5 ± 0.08^Ccd ×10^−5 cm /s | 0.54 | 0.7 ± 0.03^Bb* ×10^−5 cm /s | 0.4 ± 0.04^Cde ×10^−5 cm /s | passive diffusion | 80 | No significant changes | 1.12 | Papp (AP → BL) (Caco-2 cell monolayers; 90 min): 1.1 ± 0.02^Cb* ×10^−5 cm /s; Srebp-1c protein expression level (densitometry) (Srebp-1c): 1.32; reduction of TG content (HepG2 cells [1]): 21%; effect on cell viability (HepG2 cells [2]): no significant effects; cytotoxicity (HepG2 cells [2]): comparable cytotoxicity
O.Oc1cc(O)c2c(c1)O[C@H](c1ccc(O)c(O)c1)[C@@H](O)C2 [catechin] | 68.71 | 73.41 | 0.77 | 7.9 ± 0.26^Ba ×10^−5 cm /s | 6.1 ± 2.78^Aa ×10^−5 cm /s | 0.55 | 4.6 ± 0.43^Ab* ×10^−5 cm /s | 2.5 ± 0.28^Ab ×10^−5 cm /s | 0.52 | 1.6 ± 0.11^Ab ×10^−5 cm /s | 0.51 | 2.5 ± 0.19^Ad* ×10^−5 cm /s | 1.31 ± 0.13^Ab ×10^−5 cm /s | 0.48 | 2.2 ± 0.52^Ad* ×10^−5 cm /s | 1.0 ± 0.03^Ab ×10^−5 cm /s | passive diffusion | 80 | No significant changes | 1.14 | Fasn protein expression level (densitometry) (Fasn): 1.11; effect on cell viability (HepG2 cells [2]): no significant effects; cytotoxicity (HepG2 cells [2]): comparable cytotoxicity
